Where a name gives a salt, the structure may show the parent alone.
Experiments:
Assay in all cases: Cell viability drug screen, 12-point dose-response AUC
Type in all cases: cell-based, human
SNU620 = SNU620 cells, 72 hours
Procedure, shortened: (§1)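 AUC comes from 12-point half-log dose–response curves, normalized to DMSO-treated cells and integrated trapezoidally, repeats averaged. Luminescent viability read after 72 h compound exposure at 37 °C; cells plated 5×10^3 per well 24 h before dosing.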

SNU1750 = settings: 72 hours; for Average Area Under the Viability Curve (AUC), AUC norm value: SNU1750 cells (SEM subtype)
Procedure, shortened: as §1

OCUM1 = OCUM1 cells, 72 hours
Procedure, shortened: as §1

NCC59 = NCC59 cells, 72 hours
Procedure, shortened: as §1

MKN74 = MKN74 cells, 72 hours
Procedure, shortened: (§2)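 Viability: luminescence (Glo kit, 15 min RT), normalized to 0.5% DMSO vehicle. Dosing: half-log, 12 concentrations, 72 h. Cells: 5×10^3/well, treated 24 h after plating. Value: trapezoidal AUC, mean of repeats.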

Hs746T = settings: 72 hours; for Average Area Under the Viability Curve (AUC), AUC norm value: Hs746T cells (SEM subtype)
Procedure, shortened: as §1

SNU601 = SNU601 cells, 72 hours
Procedure, shortened: as §1

NCI_N87 = NCI_N87 cells, 72 hours
Procedure, shortened: as §1

NCC20 = NCC20 cells, 72 hours
Procedure, shortened: as §1

SNU1 = SNU1 cells, 72 hours
Procedure, shortened: as §1

KATO3 = KATO3 cells, 72 hours
Procedure, shortened: as §1

MKN28 = MKN28 cells, 72 hours
Procedure, shortened: as §1

SK4 = settings: 72 hours; for Average Area Under the Viability Curve (AUC), AUC norm value: SK4 cells (SEM subtype)
Procedure, shortened: as §1

SNU668 = settings: 72 hours; for Average Area Under the Viability Curve (AUC), AUC norm value: SNU668 cells (SEM subtype)
Procedure, shortened: as §1

YCC2 = YCC2 cells, 72 hours
Procedure, shortened: as §1

NCC19 = NCC19 cells, 72 hours
Procedure, shortened: as §1

AGS = settings: 72 hours; for Average Area Under the Viability Curve (AUC), AUC norm value: AGS cells (non-SEM subtype)
Procedure, shortened: as §2

SNU216 = settings: 72 hours; for Average Area Under the Viability Curve (AUC), AUC norm value: SNU216 cells (non-SEM subtype)
Procedure, shortened: as §2

YCC11 = settings: 72 hours; for Average Area Under the Viability Curve (AUC), AUC norm value: YCC11 cells (SEM subtype)
Procedure, shortened: as §1

MKN1 = MKN1 cells, 72 hours
Procedure, shortened: as §1

SNU484 = settings: 72 hours; for Average Area Under the Viability Curve (AUC), AUC norm value: SNU484 cells (SEM subtype)
Procedure, shortened: as §1

SNU16 = SNU16 cells, 72 hours
Procedure, shortened: as §1

SNU638 = SNU638 cells, 72 hours
Procedure, shortened: as §1

YCC3 = YCC3 cells, 72 hours
Procedure, shortened: as §1

NCC24 = NCC24 cells, 72 hours
Procedure, shortened: as §1

MKN45 = settings: 72 hours; for Average Area Under the Viability Curve (AUC), AUC norm value: MKN45 cells (non-SEM subtype)
Procedure, shortened: as §2

SNU1967 = SNU1967 cells, 72 hours
Procedure, shortened: as §1

SNU719 = SNU719 cells, 72 hours
Procedure, shortened: as §2

FU97 = test system: FU97; parameters: Average Area Under the Viability Curve (AUC), AUC norm value: scale not given here; settings: FU97 cells, 72 hours
Procedure, shortened: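 Trapezoidal AUC of a 12-point, DMSO-normalized dose-response curve. Luminescent viability was measured after 72 h of exposure at 37° C to half-log serial dilutions (0.5% DMSO control), dosed 24 h after plating FU97 cells at 5×10^3 per well.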

CCCCc1nc2cc(/C=C/C(=O)NO)ccc2n1CCN(CC)CC [SB939 (Pracinostat), Pracinostat]
area under the viability curve (AUC), normalized (SNU620; 12-point dose-response): −1.199 | area under the viability curve (AUC), normalized (SNU1750; SNU1750 cells, 12-point dose-response): −1.156 | area under the viability curve (AUC), normalized (OCUM1; 12-point dose-response): 0.7195 | area under the viability curve (AUC), normalized (NCC59; 12-point dose-response): 1.053 | area under the viability curve (AUC), normalized (MKN74; 12-point dose-response): 0.3806 | area under the viability curve (AUC), normalized (Hs746T; Hs746T cells, 12-point dose-response): 0.7098 | area under the viability curve (AUC), normalized (SNU601; 12-point dose-response): 0.1827 | area under the viability curve (AUC), normalized (NCI_N87; 12-point dose-response): −0.6724 | area under the viability curve (AUC), normalized (NCC20; 12-point dose-response): −0.08068 | area under the viability curve (AUC), normalized (SNU1; 12-point dose-response): −1.4 | area under the viability curve (AUC), normalized (KATO3; 12-point dose-response): 0.2173 | area under the viability curve (AUC), normalized (MKN28; 12-point dose-response): −0.5866 | area under the viability curve (AUC), normalized (SK4; SK4 cells, 12-point dose-response): −0.454 | area under the viability curve (AUC), normalized (SNU668; SNU668 cells, 12-point dose-response): 0.519 | area under the viability curve (AUC), normalized (YCC2; 12-point dose-response): −0.02045 | area under the viability curve (AUC), normalized (NCC19; 12-point dose-response): 0.6538 | area under the viability curve (AUC), normalized (AGS; AGS cells, 12-point dose-response): −1.799 | area under the viability curve (AUC), normalized (SNU216; SNU216 cells, 12-point dose-response): 0.6217 | area under the viability curve (AUC), normalized (YCC11; YCC11 cells, 12-point dose-response): −0.768 | area under the viability curve (AUC), normalized (MKN1; 12-point dose-response): 0.232 | area under the viability curve (AUC), normalized (SNU484; SNU484 cells, 12-point dose-response): 0.208 | area under the viability curve (AUC), normalized (SNU16; 12-point dose-response): −1.067 | area under the viability curve (AUC), normalized (SNU638; 12-point dose-response): −0.278 | area under the viability curve (AUC), normalized (YCC3; 12-point dose-response): 1.403 | area under the viability curve (AUC), normalized (NCC24; 12-point dose-response): −1.137 | area under the viability curve (AUC), normalized (MKN45; MKN45 cells, 12-point dose-response): 1.672 | area under the viability curve (AUC), normalized (SNU1967; 12-point dose-response): −0.4581 | area under the viability curve (AUC), normalized (SNU719; 12-point dose-response): 2.187 | area under the viability curve (AUC), normalized (FU97; 12-point dose-response): 0

CC[C@@]1(O)C(=O)OCc2c1cc1n(c2=O)Cc2cc3c(CN(C)C)c(O)ccc3nc2-1 [Topotecan HCI, Topotecan HCl]
Average Area Under the Viability Curve (AUC), AUC norm value (SNU620): −0.7611 | Average Area Under the Viability Curve (AUC), AUC norm value (SNU1750): 0.2818 | Average Area Under the Viability Curve (AUC), AUC norm value (OCUM1): −1.681 | Average Area Under the Viability Curve (AUC), AUC norm value (NCC59): 1.957 | Average Area Under the Viability Curve (AUC), AUC norm value (MKN74): 0 | Average Area Under the Viability Curve (AUC), AUC norm value (Hs746T): 0.4587 | Average Area Under the Viability Curve (AUC), AUC norm value (SNU601): −0.5589 | Average Area Under the Viability Curve (AUC), AUC norm value (NCI_N87): 2.857 | Average Area Under the Viability Curve (AUC), AUC norm value (NCC20): −2.367 | Average Area Under the Viability Curve (AUC), AUC norm value (SNU1): −0.6163 | Average Area Under the Viability Curve (AUC), AUC norm value (KATO3): 5.01 | Average Area Under the Viability Curve (AUC), AUC norm value (MKN28): 1.259 | Average Area Under the Viability Curve (AUC), AUC norm value (SK4): −0.4515 | Average Area Under the Viability Curve (AUC), AUC norm value (SNU668): −1.128 | Average Area Under the Viability Curve (AUC), AUC norm value (YCC2): 0.1906 | Average Area Under the Viability Curve (AUC), AUC norm value (NCC19): 2.896 | Average Area Under the Viability Curve (AUC), AUC norm value (AGS): −2.159 | Average Area Under the Viability Curve (AUC), AUC norm value (SNU216): 1.123 | Average Area Under the Viability Curve (AUC), AUC norm value (YCC11): −0.573 | Average Area Under the Viability Curve (AUC), AUC norm value (MKN1): −0.9954 | Average Area Under the Viability Curve (AUC), AUC norm value (SNU484): 1.128 | Average Area Under the Viability Curve (AUC), AUC norm value (SNU16): −0.5292 | Average Area Under the Viability Curve (AUC), AUC norm value (SNU638): −0.7133 | Average Area Under the Viability Curve (AUC), AUC norm value (YCC3): 1.923 | Average Area Under the Viability Curve (AUC), AUC norm value (NCC24): 0.0033 | Average Area Under the Viability Curve (AUC), AUC norm value (MKN45): 1.195 | Average Area Under the Viability Curve (AUC), AUC norm value (SNU1967): −2.648 | Average Area Under the Viability Curve (AUC), AUC norm value (SNU719): 3.069 | Average Area Under the Viability Curve (AUC), AUC norm value (FU97): −0.8445

COC(=O)Nc1nc2ccc(C(=O)c3cccs3)cc2[nH]1 [Nocodazole]
Average Area Under the Viability Curve (AUC), AUC norm value (SNU620): −0.735 | Average Area Under the Viability Curve (AUC), AUC norm value (SNU1750): 0.7502 | Average Area Under the Viability Curve (AUC), AUC norm value (OCUM1): 0.7248 | Average Area Under the Viability Curve (AUC), AUC norm value (NCC59): 3.0345 | Average Area Under the Viability Curve (AUC), AUC norm value (MKN74): 0.7081 | Average Area Under the Viability Curve (AUC), AUC norm value (Hs746T): 1.28 | Average Area Under the Viability Curve (AUC), AUC norm value (SNU601): 1.743 | Average Area Under the Viability Curve (AUC), AUC norm value (NCI_N87): −0.7843 | Average Area Under the Viability Curve (AUC), AUC norm value (NCC20): −1.695 | Average Area Under the Viability Curve (AUC), AUC norm value (SNU1): −0.7242 | Average Area Under the Viability Curve (AUC), AUC norm value (KATO3): 3.188 | Average Area Under the Viability Curve (AUC), AUC norm value (MKN28): −0.1478 | Average Area Under the Viability Curve (AUC), AUC norm value (SK4): −0.374 | Average Area Under the Viability Curve (AUC), AUC norm value (SNU668): −0.1188 | Average Area Under the Viability Curve (AUC), AUC norm value (YCC2): 1.3363 | Average Area Under the Viability Curve (AUC), AUC norm value (NCC19): 0.8717 | Average Area Under the Viability Curve (AUC), AUC norm value (AGS): −1.573 | Average Area Under the Viability Curve (AUC), AUC norm value (SNU216): 2.032 | Average Area Under the Viability Curve (AUC), AUC norm value (YCC11): −0.8279 | Average Area Under the Viability Curve (AUC), AUC norm value (MKN1): −0.6519 | Average Area Under the Viability Curve (AUC), AUC norm value (SNU484): −0.8136 | Average Area Under the Viability Curve (AUC), AUC norm value (SNU16): −1.507 | Average Area Under the Viability Curve (AUC), AUC norm value (SNU638): −0.1875 | Average Area Under the Viability Curve (AUC), AUC norm value (YCC3): 3.066 | Average Area Under the Viability Curve (AUC), AUC norm value (NCC24): 0 | Average Area Under the Viability Curve (AUC), AUC norm value (MKN45): 2.005 | Average Area Under the Viability Curve (AUC), AUC norm value (SNU1967): −0.07292 | Average Area Under the Viability Curve (AUC), AUC norm value (SNU719): 4.976 | Average Area Under the Viability Curve (AUC), AUC norm value (FU97): 0.3797

— patent US20250129430A1, “HIGH ATP-AFFINITY PROTEIN AS THERAPEUTIC TARGET FOR INTRACTABLE CANCER MOLECULAR SUBTYPES AND INHIBITOR THEREOF” (VeraVerse Co., Ltd., priority 2021, published 2025)
